Measurements from patent US20220105183A1, “MICRO-NANO STRUCTURE FORMED BY SELF-ASSEMBLING ORGANIC SMALL MOLECULE COMPOUND AND USE THEREOF” (Qingdao University of Science and Technology, priority 2018, published 2022).

Columns and labels:
[1] = DLS particle size / self-assembly of the compounds in aqueous solution; format: physicochemical; settings: micro-nano structure, 20 μM working solution in deionized water
Protocol: The term “particle size” refers to the size of particles, also known as “granularity” or “diameter”. When a certain physical characteristic or physical behavior of the measured particle is closest to a homogeneous sphere (or combination) of a certain diameter, the diameter (or combination) of the sphere is taken as the equivalent particle size of the measured particle. The particle size parameter of the micro-nano structure of the present invention is measured by the principle of dynamic light scattering (DLS), specifically measured by a laser particle size analyzer.
Taking the self-assembled micro-nano structure of Compound II-1 as an example, II-1 was dissolved in DMSO (also can be an organic solvent such as ethanol) to prepare a 2 mM storage solution, and a small amount of storage solution was added to deionized water to prepare 20 μM working solution. Took 10 μL and dropped it on copper mesh, observed and analyzed under transmission electron microscope (TEM), cryo-transmission electron microscope. Took 10 μL and dropped it on mica plate, observed and analyzed under atomic force microscope (AFM). In FIGS. 5, A, B, C and D were TEM photographs, cryo-transmission electron microscope photographs, AFM photographs, and AFM analysis data, respectively. According to the photographs and data, II-1 was self-assembled into nanosheets with a diameter of 40-70 nm and a thickness of 3.7-3.9 nm. […]
Among them, the particle size test results of II-12 to II-15 in aqueous solution are shown in FIG. 6, and the results of dynamic light scattering DLS of II-16 to 1-18 are shown in FIG. 7).

[2] = Photothermal effect in vitro under 808 nm laser irradiation; format: physicochemical; settings: for light-to-heat conversion efficiency: 808 nm laser; for temperature raised by / temperature reached: 808 nm laser 5 minutes; for temperature reached: from room temperature 30° C.
Protocol: A total of 4 groups of samples, 3 mL was taken and added to a cuvette respectively, and the lid was sealed.
The sample No. 2 was 10 μM II-1, and the specific preparation method is 3 mL deionized water plus 15 μL II-1 stock solution (2 mM, dissolved in DMSO);
The sample No. 3 was 20 μM II-1, and the specific preparation method was that 3 mL deionized water was added 30 μL II-1 stock solution (2 mM, dissolved in DMSO);
The sample No. 4 was 40 μM II-1, and the specific preparation method was that 3 mL deionized water was added 60 μL II-1 stock solution (2 mM, dissolved in DMSO).
Each sample was irradiated with an 808 nm laser for 5 minutes, and the temperature data was recorded every 5 seconds with a thermal imager, and the temperature corresponding to the time was plotted in origin, as shown in the left figure of FIG. 8. […] The temperature of sample No. 2 increased from room temperature 30° C. to 54° C., and the temperature was raised by 24° C. The temperature of sample No. 3 increased from room temperature 30° C. to 62° C., and the temperature was raised by 32° C. The temperature of sample No. 4 increased from room temperature 30° C. to 77° C., and the temperature was raised by 47° C.
Using a method similar to Example 8, 10 μM, 20 μM and 40 μM samples of II-16, II-17 and II-18 were prepared, respectively, they were irradiated under an 808 nm (2.6 W/cm-2) laser for 10 minutes. 40 μM II-16 to 18 samples can rise by 40° C., 36° C. and 18° C. respectively within 10 minutes under laser irradiation.
Using a method similar to that in Example 8, three samples of 20 μM of 1-16, II-17 and II-18 in water were irradiated with 808 nm (2.6 W/cm-2) laser for 10 minutes, and the light-to-heat conversion efficiency calculation result thereof were shown in FIG. 10. […] And II-18 not only has poor light-heat effect, but also has low light-heat conversion efficiency, only 12.9%.

[3] = Photothermal stability, repeated 808 nm irradiation and cooling; format: physicochemical; settings: sample No. 3, 20 μM, 808 nm laser 9 minutes, natural cooling, 5 times
Protocol: We selected sample No. 3 to test the photothermal stability experiment. As shown in the right figure of FIG. 8, sample No. 3 was irradiated with 808 nm laser for 9 minutes and then the temperature increased from room temperature 30° C. to 62° C., and then allowed to naturally cool down to room temperature, and irradiated with 808 nm laser again for 9 minutes, then naturally cooled down, and repeated for 5 times. […] After 9 minutes of irradiation, the temperature was raised by […], and then returned to room temperature.

[4] = Fluorescence imaging and photothermal treatment in sentinel lymphatic metastasis model mice; format: in vivo
Protocol: (§1) Cell preparation: The cells in the culture flask were digested with trypsin and placed in a centrifuge tube for use. The supernatant was discarded by centrifugation and counted. Then a large amount of medium was added and it was placed in a foam box to be taken to the company. The supernatant was removed by centrifugation, and about 3.5 mL of serum-free medium was added. It was prepared for injection.
(§2) After that, small animal fluorescence imaging and photothermal therapy can be performed.
(§3) Fluorescence imaging for the small animal was performed on the established mouse metastasis model. Using tail vein injection and intratumoral injection (FIG. 22), fluorescence detection was performed every 1 hour for a total of 5 hours.
(§4) The mice were treated with photothermal therapy after injection of tumor cells on the right hind foot pad with obvious sentinel lymph nodes (about 20 days). In this experiment, mice were randomly divided into 3 groups, each group 5 mice, saline+laser irradiation control group, intratumoral injection+laser irradiation experimental group and tail vein injection+laser irradiation experimental group, respectively.
(§5) After photothermal treatment of the mice, the mice were photographed and their weights were recorded every 5 days. […] After the mice were stained with ink on the lungs on day 20, the lungs of the mice were photographed.

[5] = tested on: T4 cells; test: as above; format: in vivo; settings: for tumor metastasis in the lungs, ink staining: day 20; for temperature at sentinel lymph nodes under laser: 808 nm laser (1.5 W/cm2) 10 minutes
Protocol: as §1, §2, §3, §4, §5

[6] = Photoacoustic imaging test in aqueous solution; format: physicochemical; settings: 5, 10, 20 and 40 μM in water
Protocol: In the experimental group, 2.5, 5, 10 and 20 μL of Compound II-1 (concentrations of 5, 10, 20 and 40 μM, respectively) were respectively added to 1 mL of water, and the test solution was placed in the prosthesis for photoacoustic imaging test.

[7] = sample No. 2, 10 μM in deionized water
[8] = sample No. 3, 20 μM in deionized water
[9] = sample No. 4, 40 μM in deionized water

For `CCN1C(=CC=C2CCCC(C=CC3=C(C#N)C(=C(C#N)C#N)OC3(C)C)=C2Cl)C(C)(C)c2ccccc21` [II-1], the “DLS particle size peak (nm)” value [1] was 104 nm, the “DLS particle size range (nm)” value [1] was 33-266 nm and the light-to-heat conversion efficiency [2, 7] was 60.4%. For the same molecule, the “temperature raised by” value [2, 7] was 24 °C, the temperature reached ([2]; sample No. 2, 10 μM) was 54 °C and the light-to-heat conversion efficiency [2, 8] was 61%. For the same molecule, the “temperature raised by” value [2, 8] was 32 °C, the temperature reached ([2]; sample No. 3, 20 μM) was 62 °C and the light-to-heat conversion efficiency [2, 9] was 60%. The “temperature raised by” value [2, 9] was 47 °C, the temperature reached ([2]; sample No. 4, 40 μM) was 77 °C and the “temperature raised by, every time in 5 repeated irradiations” value [3] was 25 °C. For the same molecule, the “temperature reached every time in 5 repeated irradiations” value [3] was “at least 55 °C”, the body weight ([4]; intratumoral injection + laser) was “stable in a healthy state” and the body weight ([4]; tail vein injection + laser) was “decreased on the tenth day”. For the same molecule, the “scars at the sentinel lymph nodes over time” value ([5]; intratumoral injection + laser) was “obviously healed”, the “tumor metastasis in the lungs, ink staining” value ([5]; intratumoral injection + laser) was “no obvious tumor metastasis” and the “temperature at sentinel lymph nodes under laser” value ([5]; intratumoral injection) was “significantly higher than that in the saline injection group”. For the same molecule, the “entry into the sentinel lymph node, fluorescence” value ([5]; intratumoral injection, detection every 1 hour for 5 hours) was “can obviously enter the sentinel lymph node of mice”, the “day on which mice died (first)” value ([5]; tail vein injection + laser) was 15 days and the “scars at the sentinel lymph nodes over time” value ([5]; tail vein injection + laser) was “showed a tendency to heal”. For the same molecule, the “tumor metastasis in the lungs, ink staining” value ([5]; tail vein injection + laser) was “obvious tumor metastasis”, the “temperature at sentinel lymph nodes under laser” value ([5]; tail vein injection) was “significantly higher than that in the saline injection group” and the “photoacoustic signal against concentration” value [6] was “the photoacoustic signal increased with the increase of the concentration of Compound II-1”. For the same molecule, the “wavelength of the strongest photoacoustic signal” value [6] was 710-750 nm.
